Measured values from patent US12709738B2, “Compositions and methods for increasing the culture density of a cellular biomass within a cultivation infrastructure” (The Upside Group Inc., priority 2017, dated 2026).

Columns and labels:
Format in all cases: cell-based
Bovine myoblasts [1] = test: Cell count by bright field cell imaging after LPA, subconfluent and confluent cultures; conditions: 96 well plate, LPA 0, 10 or 25 μM
Method: Bovine myoblasts were isolated from a bovine skeletal muscle tissue using the protocol described above. Isolated myoblasts were plated at a culture density of 2000 (subconfluent) or 10,000 (confluent) cells per well in a 96 well plate in triplicate wells. The cells were allowed to adhere for 24 hours, at which time LPA was added at a concentration of 0, 10 or 25 μM in the medium. Cells were subsequently harvested and counted by bright field cell imaging (Cytation 5 live cell imaging, analyzed with Lionheart software). […] Data shown are mean+/−SD. Significance was determined by the Student's T test.

Bovine myoblasts [2] = test: Proliferation rate by EdU incorporation (FACS) after LPA; conditions: 10 μM LPA, 24 hours; compared to vehicle-treated cells; FIG. 5
Method: In another experiment, bovine myoblasts were plated at a culture density of 10,000 cells per well in a 96 well plate in triplicate wells. The cells were allowed to adhere for 24 hours, when 10 μM LPA was added in the medium. Cells were subsequently harvested. After 24 hours, the proliferation rate was measured by EdU incorporation using a commercially available nucleoside pulse labeling kit such as the Click-iT-EdU kit (ThermoFisher). Briefly, cells were treated with 3 μM EdU, incubated at room temperature for 6 hours and detected according to the manufacturer's instructions, Cells were labeled with Alexa Fluor® 647 azide and analyzed using Fluorescence-Activated Cell Sorting (FACS) using 633 nm excitation and a 660/20 nm emission filter.

Bovine myoblasts [3] = test: Differentiation to mature muscle cells by myogenin immunostaining; conditions: LPA 10 or 25 μM added daily in serum-free medium
Method: Isolated bovine myoblasts were plated in a culture medium without adding serum at a culture density of 10,000 cells per well in a 96 well plate in triplicate wells. The cells were allowed to adhere for 24 hours, when LPA was added at a concentration of 0, 10 or 25 μM in serum-free medium. LPA was added daily until harvesting. Myogenin was used as a marker of differentiation to mature muscle cells. To determine the degree of differentiation to mature muscle cells, cultures were fixed in 4% paraformaldehyde for 10 min and then washed with PBS. Cells were incubated with PBS/0.2% BSA/0.1% Triton-X100 for 20 min followed by incubation with an anti-myogenin antibody (Abcam, mouse, 1/150) for 1 h at room temperature. After 3 washes with PBS/0.2% BSA, cells were incubated with secondary antibodies (goat anti-rabbit Alexa488, 1/800; goat anti-mouse Alexa555, 1/800, Invitrogen) for 30 min at room temperature. Nucleus was stained with DAPI.

Q: For lysophosphatidic acid [LPA], which “increase of cells in the subconfluent culture” value (Bovine myoblasts [1]; 2000 cells per well, FIG. 4A) is on record?
A: 309%

Q: What about the “increase of cells in the confluent culture” value (Bovine myoblasts [1]; 10,000 cells per well, FIG. 4B) of the same substance?
A: 130%

Q: What about the “increase in percentage of cells in the S-phase” value (Bovine myoblasts [2]) of the same substance?
A: 216%

Q: What about the “expression of myogenin (marker of differentiation)” value (Bovine myoblasts [3]) of the same substance?
A: reduced expression of myogenin
